Values of other authors as cited in patent publication US6821974B2, “Stable pharmaceutical compositions” (Barbeau Pharma, Inc, priority 2002, dated 2004).
Where two headings read alike, the source gives them in different places.

Legend:
[1] = 20 mg/ml sterile injection solutions

storage time after which submicron particles appear [1]: 6-12 months
Compound: NNc1nncc2ccccc12 [Hydralazine, 1-hydrazinophthalazine]
onset of action (given intravenously): 10 to 20 min
duration of action (in vivo): 3 to 4 h
maximum hypotensive effect (in vivo): 10 to 80 min
onset of action (in vivo): 10 to 30 min
